Assay results from PubChem BioAssay (NCI).
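Cultured in 96-well plates, cells were exposed to test compound for 48 hours across five concentrations. The concentration for full growth arrest is given as TGI.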

Key:
Assay in all cases: growth of human tumour cells (NCI), 48 h
[1] = system: UACC-257 melanoma
[2] = system: U251 CNS
[3] = system: A549 NSCLC
[4] = system: PC-3 prostate
[5] = system: SR leukemia
[6] = system: NCI-H460 lung
[7] = system: OVCAR-8 ovarian
[8] = system: OVCAR-4 ovarian
[9] = system: NCI-H522 lung
[10] = system: UACC-62 melanoma
[11] = system: HOP-62 NSCLC
[12] = system: SN12C renal
[13] = system: HCC-2998 colon
[14] = system: SK-MEL-2 melanoma
[15] = system: MOLT-4 leukemia
[16] = system: M14 melanoma
[17] = system: KM12 colon
[18] = system: MALME-3M melanoma
[19] = system: SF-539 CNS
[20] = system: TK-10 renal
[21] = system: HT29 colon
[22] = system: EKVX NSCLC
[23] = system: HCT-116 colon
[24] = system: NCI-H23 lung
[25] = system: NCI/ADR-RES ovarian
[26] = system: COLO 205 colon
[27] = system: SK-MEL-28 melanoma
[28] = system: DU-145 prostate
[29] = system: IGROV1 ovarian
[30] = system: ACHN renal
[31] = system: HOP-92 NSCLC
[32] = system: OVCAR-5 ovarian
[33] = system: HS 578T breast
[34] = system: CAKI-1 renal
[35] = system: SNB-75 CNS
[36] = system: LOX IMVI melanoma
[37] = system: SNB-19 CNS
[38] = system: SF-295 CNS
[39] = system: T-47D breast
[40] = system: RPMI-8226 leukemia
[41] = system: HCT-15 colon
[42] = system: MDA-MB-231 breast
[43] = system: A498 renal
[44] = system: SW-620 colon
[45] = system: RXF 393 renal
[46] = system: 786-0 renal
[47] = system: SK-OV-3 ovarian
[48] = system: SF-268 CNS
[49] = system: NCI-H226 lung
[50] = system: SK-MEL-5 melanoma
[51] = system: MDA-N
[52] = system: OVCAR-3 ovarian
[53] = system: BT-549 breast
[54] = system: MDA-MB-435
[55] = system: K-562 leukemia
[56] = system: MCF7 breast
[57] = system: UO-31 renal

CCOC(=O)/C(C#N)=C/c1ccnc2ccccc12
TGI [1]: > 100 µM
TGI [2]: > 100 µM
TGI [3]: > 100 µM
TGI [4]: > 100 µM
TGI [5]: 64.9 µM
TGI [6]: > 100 µM
TGI [7]: 57 µM
TGI [8]: > 100 µM
TGI [9]: > 100 µM
TGI [10]: > 100 µM
TGI [11]: > 100 µM
TGI [12]: > 100 µM
TGI [13]: > 100 µM
TGI [14]: > 100 µM
TGI [15]: > 100 µM
TGI [16]: > 100 µM
TGI [17]: > 100 µM
TGI [18]: > 100 µM
TGI [19]: 50 µM
TGI [20]: > 100 µM
TGI [21]: > 100 µM
TGI [22]: > 100 µM
TGI [23]: > 100 µM
TGI [24]: > 100 µM
TGI [25]: 52 µM
TGI [26]: > 100 µM
TGI [27]: > 100 µM
TGI [28]: > 100 µM
TGI [29]: > 100 µM
TGI [30]: > 100 µM
TGI [31]: > 100 µM
TGI [32]: > 100 µM
TGI [33]: > 100 µM
TGI [34]: > 100 µM
TGI [35]: > 100 µM
TGI [36]: 72.1 µM
TGI [37]: > 100 µM
TGI [38]: > 100 µM
TGI [39]: > 100 µM
TGI [40]: 92.5 µM
TGI [41]: > 100 µM
TGI [42]: > 100 µM
TGI [43]: > 100 µM
TGI [44]: > 100 µM
TGI [45]: > 100 µM
TGI [46]: > 100 µM
TGI [47]: > 100 µM
TGI [48]: > 100 µM
TGI [49]: > 100 µM
TGI [50]: > 100 µM
TGI [51]: > 100 µM
TGI [52]: > 100 µM
TGI [53]: > 100 µM
TGI [54]: > 100 µM

O=c1c(=O)c2c(Br)sc(Br)c2c1=O
TGI [1]: 36.5 µM
TGI [2]: 61 µM
TGI [3]: > 100 µM
TGI [4]: 36.5 µM
TGI [5]: 44.2 µM
TGI [6]: > 100 µM
TGI [7]: 37.4 µM
TGI [8]: 31.2 µM
TGI [9]: 32 µM
TGI [10]: 39.3 µM
TGI [11]: > 100 µM
TGI [12]: 31.6 µM
TGI [13]: > 100 µM
TGI [14]: 41.1 µM
TGI [15]: 48.3 µM
TGI [16]: 34.3 µM
TGI [17]: > 100 µM
TGI [18]: 31.8 µM
TGI [19]: 35.3 µM
TGI [20]: 47.7 µM
TGI [21]: 57.4 µM
TGI [22]: 42.8 µM
TGI [55]: 51 µM
TGI [23]: 37.8 µM
TGI [24]: 40.6 µM
TGI [25]: > 100 µM
TGI [26]: 38.6 µM
TGI [27]: 28.7 µM
TGI [28]: > 100 µM
TGI [29]: 34.7 µM
TGI [30]: 44.7 µM
TGI [31]: 33 µM
TGI [56]: 42.3 µM
TGI [32]: 39.8 µM
TGI [33]: > 100 µM
TGI [34]: 33.4 µM
TGI [35]: 75.2 µM
TGI [36]: 36.4 µM
TGI [37]: > 100 µM
TGI [38]: > 100 µM
TGI [39]: 47.8 µM
TGI [40]: 45.9 µM
TGI [41]: 40.1 µM
TGI [43]: > 100 µM
TGI [57]: 51.4 µM
TGI [44]: 31.8 µM
TGI [45]: 34.7 µM
TGI [46]: 56.5 µM
TGI [47]: > 100 µM
TGI [48]: > 100 µM
TGI [49]: > 100 µM
TGI [50]: 31.8 µM
TGI [51]: 32.8 µM
TGI [52]: 35.2 µM
TGI [53]: 36.6 µM
TGI [54]: 37.7 µM
